The values below come from patent US7285555B2, “6-aryl-7-halo-imidazo[1,2-a]pyrimidines as anticancer agents” (Wyeth Holdings Corporation, priority 2003, dated 2007).

The subject of one data set is COLO 205 cells. Briefly: MTS cytotoxicity test procedure with COLO 205 cells. Type of data set: cell-based. The conditions noted are these: Homo sapiens, 72 h, MTS assay, three days of culture. How it is done:
The MTS assay, which is sold in kit form by Promega (Madison, Wis.; CellTiter 96 AQueous Non-Radioactive Cell Proliferation Assay), is based on the conversion by viable cells, but not by dead cells, of the tetrazolium salt, MTS (3-(4,5-dimethylthiazol-2-yl)-5-(3-carboxymethoxyphenyl)-2-(4-sulphophenyl)-2H-tetrazolium, inner salt), into a water-soluble colored formazan which is detected by spectrophotometry. Compounds are tested at nine concentrations, in order to determine IC50 values. For the test procedure, cells are harvested by trypsinization (or, in the case of non-adherent cells, by simple resuspension), washed, counted and distributed to wells of 96-well flat-bottom microtiter plates at 1000 cells per well in 200 μL of medium. In addition, one row of wells on a separate plate receives cells as above (“time 0” plate). All plates are incubated at 370 in humidified 5% CO2 in air for about 24 hr.
On day 2, compounds for test are diluted and added to wells. Compounds are dissolved in DMSO at 10 mg/mL. For each compound, nine serial 2-fold dilutions are prepared in DMSO. Ten μL of each dilution in DMSO is transferred to 100 μL of medium, mixed well, and then 5 μL of this dilution is transferred in quadruplicate to wells containing cells. The final high concentration of each compound is typically 1-5 μM. Plates are returned to the incubator for three days. At the time of drug addition to the experimental plates, the MTS assay is run on the “time 0” plate. This gives the “time 0 MTS value” which is related to the number of viable cells per well at the time of drug addition.
After three days of culture with test compounds (day 5 overall), the MTS assay is done on all wells of the experimental plates. The absorbance values of the quadruplicate sample wells are averaged and divided by the average of the “time 0” values. The average of control wells without drug, divided by the average “time 0” value, gives the maximal relative increase in MTS color yield due to cell growth during the final three days of culture. The average of control wells with high drug concentration, divided by the “time 0” value, gives the minimal relative color yield for cells that were completely killed. The nine values for each compound are plotted against concentration, and the concentration that produces a relative color yield half way between the maximum and minimum is taken as the IC50 value.
COLO 205 is a human colon carcinoma cell line that is used for comparative testing of the examples of this invention and several reference compounds (Table 1). This line is sensitive to paclitaxel and vincristine.

In a further data set the test system is KB cells. Briefly: SRB cytotoxicity test procedure with KB cells. Format: cell-based. The note with it: Homo sapiens, SRB assay, means of 2 independent experiments. The text has this: Human cancer cell lines, unless otherwise noted, are obtained from the American Type Culture Collection (Rockville, Md.). […]
The SRB standard cytotoxicity assay is done according to previously reported methods (Discafani, C. M., Carroll, M. L., Floyd Jr., M. B. F., Hollander, I. J., Husain, Z., Johnson, B. D., Kitchen, D., May, M. K., Malo, M. S., Minnick Jr., A. A., Nilakantan, R., Shen, R., Wang Y-F., Wissner, A., Greenberger, L. M. Irreversible inhibition of epidermal growth factor receptor tyrosine kinase with in vivo activity by N-[4-[3-bromophenyl)amino]-6-quinaxolinyl]-2-butynamide (CL-387,785). […] Absorbance is read on a Victor V multi-label plate reader (Perkin Elmer, Gaithersburg, Md.). […]

In the next data set the test system is KB-8-5 cells. Kind of data set: SRB cytotoxicity test procedure with KB-8-5 cells. Format: cell-based, human. The conditions noted are these: SRB assay. From the text:
(§1) Human cancer cell lines, unless otherwise noted, are obtained from the American Type Culture Collection (Rockville, Md.). The following drug-sensitive parental cell lines, and their derived drug-resistant counterparts, are obtained from the originators as listed: (a) S1 (parental line from a subclone of human colon carcinoma line LS174T) and derived S1-M1-3.2 (herein called S1-M1) which expresses the MXR drug transporter protein, are provided by Dr. L. Greenberger, Wyeth Research (Rabindran, S. K., He, H., Singh, M., Brown, E., Collins, K. I., Annable, T., and Greenberger, L. M. Reversal of a novel multidrug resistance mechanism in human colon carcinoma cells by fumitremorgin C. Cancer Res., 58: 5850-5858,1998); (b) parental HL-60 human promyelocytic leukemia line and derived HL-60/ADR, which expresses the MRP1 drug transporter protein, are provided by Dr. M. Center, University of Kansas (McGrath, T., and Center, M. S. Adriamycin resistance in HL60 cells in the absence of detectable P-glycoprotein. Biochem. Biophys. […] J. Biol. Chem., 261: 7762-7770, 1986) via Dr. L. Greenberger, Wyeth Research.
The SRB standard cytotoxicity assay is done according to previously reported methods (Discafani, C. M., Carroll, M. L., Floyd Jr., M. B. F., Hollander, I. J., Husain, Z., Johnson, B. D., Kitchen, D., May, M. K., Malo, M. S., Minnick Jr., A. A., Nilakantan, R., Shen, R., Wang Y-F., Wissner, A., Greenberger, L. M. Irreversible inhibition of epidermal growth factor receptor tyrosine kinase with in vivo activity by N-[4-[3-bromophenyl)amino]-6-quinaxolinyl]-2-butynamide (CL-387,785). Biochem. Pharmacol., 57: 917-925, 1999). Briefly, cells are plated in 100 μL of medium in 96-well flat-bottom microtiter plates in the morning of day 1 and allowed to adhere to the plates for 2-6 hr. Compounds are serially diluted into medium as 2× stocks and 100 μL of these stocks are added to cells in duplicate. Compounds are incubated with cells for 3 days. At the end of the incubation period the sulforhodamine B (SRB) assay, which measures protein content as an assessment of cell survival, is performed as described previously (Skehan, P., Storeng, R., Scudiero, D., Monks, A., McMahon, J., Vistica, D., Warren, J. T., Bokesch, H., Kenney, S., Boyd, M. R. New calorimetric cytotoxicity assay for anticancer-drug screening. J. Natl. Cancer Inst., 82:1107-1112, 1990) with some modifications. Medium is gently decanted from plates and replaced with 200 μL per well of cold serum-free medium containing a final concentration of 10% trichloroacetic acid. The plates are incubated for 1 hr at 40, washed 5 times in cold distilled water, and air-dried overnight. […] Absorbance is read on a Victor V multi-label plate reader (Perkin Elmer, Gaithersburg, Md.). […]

The next data set concerns KB-V1 cells. Briefly: SRB cytotoxicity test procedure with KB-V1 cells. Format: cell-based, human. The note with it: SRB assay.
Text: as §1
The SRB standard cytotoxicity assay is done according to previously reported methods (Discafani, C. M., Carroll, M. L., Floyd Jr., M. B. F., Hollander, I. J., Husain, Z., Johnson, B. D., Kitchen, D., May, M. K., Malo, M. S., Minnick Jr., A. A., Nilakantan, R., Shen, R., Wang Y-F., Wissner, A., Greenberger, L. M. Irreversible inhibition of epidermal growth factor receptor tyrosine kinase with in vivo activity by N-[4-[3-bromophenyl)amino]-6-quinaxolinyl]-2-butynamide (CL-387,785). Biochem. Pharmacol., 57: 917-925, 1999). Briefly, cells are plated in 100 μL of medium in 96-well flat-bottom microtiter plates in the morning of day 1 and allowed to adhere to the plates for 2-6 hr. Compounds are serially diluted into medium as 2× stocks and 100 μL of these stocks are added to cells in duplicate. Compounds are incubated with cells for 3 days. At the end of the incubation period the sulforhodamine B (SRB) assay, which measures protein content as an assessment of cell survival, is performed as described previously (Skehan, P., Storeng, R., Scudiero, D., Monks, A., McMahon, J., Vistica, D., Warren, J. T., Bokesch, H., Kenney, S., Boyd, M. R. New calorimetric cytotoxicity assay for anticancer-drug screening. J. Natl. Cancer Inst., 82:1107-1112, 1990) with some modifications. Medium is gently decanted from plates and replaced with 200 μL per well of cold serum-free medium containing a final concentration of 10% trichloroacetic acid. The plates are incubated for 1 hr at 40, washed 5 times in cold distilled water, and air-dried overnight. The fixed cells are stained for 10 min with 80 μL per well of 0.04% SRB solution prepared in 1% glacial acetic acid. Staining solution is decanted, plates are washed 5 times in 1% glacial acetic acid, and then air-dried until completely dry. Stained cell product is dissolved in 150 μL per well of 10 mM Trizma Base with shaking for 20 minutes. Absorbance is read on a Victor V multi-label plate reader (Perkin Elmer, Gaithersburg, Md.).
The KB lines express different amounts of the P-glycoprotein (MDR1) membrane pump which produces resistance to the action of many cytotoxic compounds, including paclitaxel and vincristine. The parental KB line expresses no P-glycoprotein, KB-8-5 expresses moderate levels of the protein, and KB-V1 expresses very high levels.

In turn, `CN(C)CCCOc1cc(F)c(-c2c(Cl)nc3nccn3c2NCC(F)(F)F)c(F)c1` [Example 4, 7-chloro-6-{4-[3-(dimethylamino)propoxy]-2,6-difluorophenyl}-N-(2,2,2-trifluoroethyl)imidazo[1,2-a]pyrimidin-5-amine] gave a melting point of 52 to 55 °C. The compound further had an IC50 with COLO 205 cells of 0.088 µM. Further, the midpoint of inhibition in the data set on KB cells, the IC50, lay at 0.024 µM. The same compound registered an IC50 with KB-8-5 cells (Homo sapiens, KB 8.5 cells, means of 2 independent experiments) of 0.059 µM. Also, in the data set with KB-8-5 cells (IC50 on KB 8.5 cells/IC50 on KB cells), the “Ratio 8.5/KB” value stood at 2.5. The compound also registered a half-inhibitory concentration (IC50) in the data set with KB-V1 cells (Homo sapiens, KB-V1, KB VI cells, means of 2 independent experiments) of 2.39 µM. The “Ratio VI/KB” value with KB-V1 cells (IC50 on KB VI cells/IC50 on KB cells) was determined as 99.
